{
  "source": "patent US11697646B2",
  "about": "“Triazole N-linked carbamoyl cyclohexyl acids as LPA antagonists” (BRISTOL-MYERS SQUIBB COMPANY, priority 2017, dated 2023)",
  "data": [
    {"biological_target": "T1, human LPA1 (Homo sapiens, UniProt Q92633)", "T1 construct": "expressed in transfected cells; host or cells: Chinese hamster ovary (CHO) cells", "T1 sequence (Q92633 whole entry)": "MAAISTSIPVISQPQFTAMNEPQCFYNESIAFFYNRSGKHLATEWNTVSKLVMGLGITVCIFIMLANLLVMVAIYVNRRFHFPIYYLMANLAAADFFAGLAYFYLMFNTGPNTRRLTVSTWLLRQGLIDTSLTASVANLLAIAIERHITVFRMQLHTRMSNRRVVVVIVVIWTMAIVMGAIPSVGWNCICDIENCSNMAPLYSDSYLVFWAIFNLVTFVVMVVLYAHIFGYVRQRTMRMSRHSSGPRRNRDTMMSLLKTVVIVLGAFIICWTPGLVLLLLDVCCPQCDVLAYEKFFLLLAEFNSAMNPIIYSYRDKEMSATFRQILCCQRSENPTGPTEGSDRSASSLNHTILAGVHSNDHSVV", "assay": "LPA1 functional antagonist assay (calcium flux)", "assay_type": "cell-based", "conditions": "CHO cells overexpressing human LPA1; calcium flux induced by 10 nM LPA; read-out: hLPA1 IC50", "description": "(§1) The effectiveness of compounds of the present invention as LPA1 inhibitors can be determined in an LPA1 functional antagonist assay as follows:\n(§2) The cells were then equilibrated to room temperature for 30 minutes before the assay. […] IC50 values were determined by fitting data to a 4-parameter logistic equation (GraphPad Prism, San Diego Calif.).", "units": {"IC50": "nM"}, "values": [
      {"smiles": "CC(COC(=O)NCc1c(-c2ccc(O[C@H]3CCC[C@H](C(=O)O)C3)cn2)nnn1C)CC(F)(F)F", "note": "(mixture of isomers) [Example 31, (1S,3S)-3-((6-(1-methyl-5-((((4,4,4-trifluoro-2-methylbutoxy)carbonyl)amino)methyl)-1H-1,2,3-triazol-4-yl)pyridin-3-yl)oxy)cyclohexanecarboxylic acid]", "IC50": 102},
      {"smiles": "Cc1nc(-c2nnn(C)c2CNC(=O)OCC(C)CC(F)(F)F)ccc1O[C@H]1CCC[C@H](C(=O)O)C1", "note": "(mixture of isomers) [Example 32, (1S,3S)-3-((2-methyl-6-(1-methyl-5-((((4,4,4-trifluoro-2-methylbutoxy)carbonyl)amino)methyl)-1H-1,2,3-triazol-4-yl)pyridin-3-yl)oxy)cyclo-hexane-1-carboxylic acid]", "IC50": 69},
      {"smiles": "Cn1nnc(-c2ccc(O[C@H]3CCC[C@H](C(=O)O)C3)cn2)c1CNC(=O)OCC1CC(F)C1", "note": "(mixture of isomers) [Example 47, (1S,3S)-3-((6-(5-(((((3-fluorocyclobutyl)methoxy)carbonyl)amino)methyl)-1-methyl-1H-1,2,3-triazol-4-yl)pyridin-3-yl)oxy)cyclohexane-1-carboxylic acid]", "IC50": 854},
      {"smiles": "Cc1nc(-c2nnn(C)c2CNC(=O)OCC2CC(F)C2)ccc1O[C@H]1CCC[C@H](C(=O)O)C1", "note": "(mixture of isomers) [Example 48, (1S,3S)-3-((6-(5-(((((3-fluorocyclobutyl)methoxy)carbonyl)amino)methyl)-1-methyl-1H-1,2,3-triazol-4-yl)-2-methylpyridin-3-yl)oxy)cyclohexane-1-carboxylic acid]", "IC50": 48},
      {"smiles": "Cc1nc(-c2nnn(C)c2NC(=O)OC(C)C2CC2)ccc1O[C@H]1CCC[C@H](C(=O)O)C1", "note": "(mixture of isomers) [Example 69, (1S,3S)-3-((6-(5-(((1-cyclopropyl-ethoxy)carbonyl)amino)-1-methyl-1H-1,2,3-triazol-4-yl)-2-methyl-pyridin-3-yl)oxy)cyclohexane-1-carboxylic acid]", "IC50": 85},
      {"smiles": "CCC(C)CNC(=O)NCc1c(-c2ccc(O[C@H]3CCC[C@H](C(=O)O)C3)c(C)n2)nnn1C", "note": "(mixture of isomers) [Example 118, (1S,3S)-3-((2-methyl-6-(1-methyl-5-((3-(2-methylbutyl)ureido)methyl)-1H-1,2,3-triazol-4-yl)pyridin-3-yl)oxy)cyclo-hexane-1-carboxylic acid]", "IC50": 105},
      {"smiles": "CCCC(NC(=O)NCc1c(-c2ccc(O[C@H]3CCC[C@H](C(=O)O)C3)c(C)n2)nnn1C)c1ccccc1", "note": "(mixture of isomers) [Example 119, (1S,3S)-3-((2-methyl-6-(1-methyl-5-((3-(1-phenylbutyl)ureido)methyl)-1H-1,2,3-triazol-4-yl)pyridin-3-yl)oxy)cyclo-hexane-1-carboxylic acid]", "IC50": 187},
      {"smiles": "CCC(NC(=O)NCc1c(-c2ccc(O[C@H]3CCC[C@H](C(=O)O)C3)c(C)n2)nnn1C)c1ccccc1", "note": "(mixture of isomers) [Example 120, (1S,3S)-3-((2-methyl-6-(1-methyl-5-((3-(1-phenylpropyl)ureido)methyl)-1H-1,2,3-triazol-4-yl)pyridin-3-yl)oxy)cyclo-hexane-1-carboxylic acid]", "IC50": 238},
      {"smiles": "Cc1nc(-c2nnn(C)c2CNC(=O)NC(CF)c2ccccc2)ccc1O[C@H]1CCC[C@H](C(=O)O)C1", "note": "(mixture of isomers) [Example 121, (1S,3S)-3-((6-(5-((3-(2-fluoro-1-phenyl-ethyl)ureido)methyl)-1-methyl-1H-1,2,3-triazol-4-yl)-2-methylpyridin-3-yl)oxy)cyclohexane-1-carboxylic acid]", "IC50": 555},
      {"smiles": "Cc1nc(-c2nnn(C)c2CNC(=O)NC(C)c2ccccc2)ccc1O[C@H]1CCC[C@H](C(=O)O)C1", "note": "(mixture of isomers) [Example 129, (1S,3S)-3-((2-methyl-6-(1-methyl-5-((3-(1-phenylethyl)ureido)methyl)-1H-1,2,3-triazol-4-yl)pyridin-3-yl)oxy)cyclo-hexane-1-carboxylic acid]", "IC50": 142},
      {"smiles": "CCCC(C)NC(=O)Nc1c(-c2ccc(O[C@H]3CCC[C@H](C(=O)O)C3)c(C)n2)nnn1C", "note": "(mixture of isomers) [Example 147, (1S,3S)-3-((2-methyl-6-(1-methyl-5-(3-(pentan-2-yl)ureido)-1H-1,2,3-triazol-4-yl)pyridin-3-yl)oxy)cyclo-hexane-1-carboxylic acid]", "IC50": 517},
      {"smiles": "Cc1nc(-c2nnn(C)c2NC(=O)OCC2CC2C)ccc1O[C@H]1CCC[C@H](C(=O)O)C1", "note": "(mixture of isomers) [Example 223, (1S,3S)-3((2-methyl-6-(1-methyl-5-((((2-methylcyclopropyl)methoxy)carbonyl)amino)-1H-1,2,3-triazol-4-yl)pyridin-3-yl)oxy)cyclohexane-1-carboxylic acid (mixture of cyclopropyl diastereomers)]", "IC50": 52},
      {"smiles": "Cc1nc(-c2nnn(C)c2CCNC(=O)CC(C)CC(C)(C)C)ccc1O[C@H]1CCC[C@H](C(=O)O)C1", "note": "(mixture of isomers) [Example 239, (1S,3S)-3-((2-methyl-6-(1-methyl-5-(2-(3,5,5-trimethylhexanamido)ethyl)-1H-1,2,3-triazol-4-yl)pyridin-3-yl)oxy)cyclohexane-1-carboxylic acid (diastereomeric mixture)]", "IC50": 1020},
      {"smiles": "CC(C)CCOC(=O)NCc1c(-c2ccc(O[C@@H]3CCC[C@@H](C(=O)O)C3)cc2)nnn1C", "note": "(racemic) [Example 4, (±)-(trans)-3-(4-(5-((((isopentyloxy)carbonyl)amino)methyl)-1-methyl-1H-1,2,3-triazol-4-yl)phenoxy)cyclohexane-1-carboxylic acid]", "IC50": 148},
      {"smiles": "Cn1nnc(-c2ccc(O[C@@H]3CCC[C@@H](C(=O)O)C3)cc2)c1CNC(=O)OCCC1CC1", "note": "(racemic) [Example 39, (±)-trans-3-(4-(5-((((2-cyclopropylethoxy)carbonyl)amino)methyl)-1-methyl-1H-1,2,3-triazol-4-yl)phenoxy)cyclohexane-1-carboxylic acid]", "IC50": 457},
      {"smiles": "Cn1nnc(-c2ccc(O[C@@H]3CCC[C@@H](C(=O)O)C3)cc2)c1CNC(=O)OCc1ccccc1", "note": "(racemic) [Example 40, (±)-trans-3-(4-(5-((((benzyloxy)carbonyl)amino)methyl)-1-methyl-1H-1,2,3-triazol-4-yl)phenoxy)cyclohexane-1-carboxylic acid]", "IC50": 664},
      {"smiles": "Cc1nc(-c2nnn(C)c2CNC(=O)OCc2ccccc2)ccc1O[C@@H]1CCC[C@@](F)(C(=O)O)C1", "note": "(racemic) [Example 209, (±)-Cis-3-((6-(5-((((benzyloxy)carbonyl)amino)methyl)-1-methyl-1H-1,2,3-triazol-4-yl)-2-methylpyridin-3-yl)oxy)-1-fluorocyclohexanecarboxylic acid]", "IC50": 12},
      {"smiles": "Cc1nc(-c2nnn(C)c2CNC(=O)N(C)C(C)C(C)C)ccc1O[C@H]1CCC[C@H](C(=O)O)C1", "note": "(single isomer, unassigned) [Example 125]", "IC50": 1210},
      {"smiles": "Cc1nc(-c2nnn(C)c2CNC(=O)NC(C)C(C)C)ccc1O[C@H]1CCC[C@H](C(=O)O)C1", "note": "(single isomer, unassigned) [Example 126]", "IC50": 611},
      {"smiles": "Cc1nc(-c2nnn(C)c2CNC(=O)OCC2CC2(F)F)ccc1OC1CCCC(C(=O)O)C1", "note": "(single isomer, unassigned) [Example 207]", "IC50": 44},
      {"smiles": "Cc1nc(-c2nnn(C)c2CNC(=O)OCc2ccccc2)ccc1O[C@@H]1CCC[C@@](F)(C(=O)O)C1", "note": "(single isomer, unassigned) [Example 210]", "IC50": 5},
      {"smiles": "Cc1nc(-c2nnn(C)c2CNC(=O)OCc2ccccc2)ccc1O[C@@H]1CCC[C@@](F)(C(=O)O)C1", "note": "(single isomer, unassigned) [Example 211]", "IC50": 192},
      {"smiles": "CC[C@H](C)COC(=O)NCc1c(-c2ccc(O[C@H]3CCC[C@H](C(=O)O)C3)c(C)n2)nnn1C", "note": "[Example 1, (1S,3S)-3-((2-Methyl-6-(1-methyl-5-(((((S)-2-methylbutoxy)carbonyl)amino)methyl)-1H-1,2,3-triazol-4-yl)pyridin-3-yl)oxy)cyclohexanecarboxylic acid]", "IC50": 18},
      {"smiles": "CC[C@H](C)COC(=O)N(C)Cc1c(-c2ccc(O[C@H]3CCC[C@H](C(=O)O)C3)c(C)n2)nnn1C", "note": "[Example 2, (1S,3S)-3-((2-Methyl-6-(1-methyl-5-((methyl(((S)-2-methylbutoxy)carbonyl)amino)methyl)-1H-1,2,3-triazol-4-yl)pyridin-3-yl)oxy)cyclohexanecarboxylic acid]", "IC50": 29}
    ]},
    {"biological_target": "T1, human LPA1", "assay": "LPA1 functional antagonist assay (calcium flux)", "assay_type": "cell-based", "conditions": "human LPA1 functional antagonist assay; read-out: hLPA1 IC50", "description": "as §1, §2", "units": {"IC50": "nM"}, "values": [
      {"smiles": "Cc1nc(-c2nnn(C)c2CNC(=O)OCC2CC2(F)F)ccc1O[C@H]1CCC[C@H](C(=O)O)C1", "note": "(mixture of isomers) [Example 180, (1S,3S)-3-((6-(5-(((((2,2-difluoro-cyclopropyl)methoxy)carbonyl)amino)methyl)-1-methyl-1H-1,2,3-triazol-4-yl)-2-methylpyridin-3-yl)oxy)cyclohexane-1-carboxylic acid (diastereomers at cyclopropyl carbon)]", "IC50": 53},
      {"smiles": "Cc1nc(-c2nnn(C)c2CNC(=O)OCC(C)C(F)(F)F)ccc1O[C@H]1CCC[C@H](C(=O)O)C1", "note": "(mixture of isomers) [Example 204, (1S,3S)-3((2-methyl-6-(1-methyl-5-((((3,3,3-trifluoro-2-methylpropoxy)carbonyl)amino)methyl)-1H-1,2,3-triazol-4-yl)pyridin-3-yl)oxy)cyclohexane-1-carboxylic acid]", "IC50": 96},
      {"smiles": "Cc1nc(-c2nnn(C)c2CNC(=O)OC[C@H]2C[C@@H]2C)ccc1O[C@H]1CCC[C@H](C(=O)O)C1", "note": "(stereo in doubt) [Example 183, (1S,3S)-3((2-methyl-6-(1-methyl-5-(((((trans-2-methylcyclopropyl)methoxy)carbonyl)amino)methyl)-1H-1,2,3-triazol-4-yl)pyridin-3-yl)oxy)cyclohexane-1-carboxylic acid]", "IC50": 32}
    ]}
  ]
}
